From patent US10519140B2, “Indolin-2-one derivatives” (Hoffmann-La Roche Inc., priority 2015, dated 2019)
pIC50: −log10 of the molar value.

Key:
[1] = tested on: L-687,414-induced hyperlocomotion; test: L-687,414-induced hyperlocomotion; assay type: in vivo; settings: Mus musculus; mice; dose 30 mg/kg ip, 15 min before 50 mg/kg s.c. L-687,414
Excerpt: The authors described that hyperlocomotion induced by L-687,414 was inhibited by a series of known antipsychotic drugs. […] These findings predict antipsychotic activity for the present compounds, making them useful for the treatment of positive (psychosis) and negative symptoms of schizophrenia, substance abuse, alcohol and drug addiction, obsessive-compulsive disorders, cognitive impairment, bipolar disorders, mood disorders, major depression, resistant depression, anxiety disorders, Alzheimer's disease, autism, Parkinson's disease, chronic pain, borderline personality disorder, sleep disturbances, chronic fatigue syndrome, stiffness, antiinflammatory effects in arthritis and balance problems, and treatment of epilepsy and neurodevelopmental disorders with co-morbid epilepsy.
The described compounds of formula I reduce L-687,414-induced hyperlocomotion. This was assessed by using a computerized Digiscan 16 Animal Activity Monitoring System (Omnitech Electronics, Columbus, Ohio) to quantify locomotor activity. Animals were kept under a 12 h light/dark cycle and experiments were performed during the light period. Each activity monitoring chamber consisted of a Plexiglas box (41×41×28 cm; W×L×H) with sawdust bedding on the floor surrounded by invisible horizontal and vertical infrared sensor beams. The test boxes were divided by a Plexiglas cross providing each mouse with 20×20 cm of moving space. Cages were connected to a Digiscan Analyzer linked to a computer that constantly collected the beam status information. Records of photocell beam interruptions for individual animals were taken every 5 min over the duration of the experimental session and the sum of the first 6 periods was used as the final parameter. At least 8 mice were used in each treatment group. Compounds were administered i.p. 15 min before a s.c. injection of 50 mg/kg of L-687,414. Mice were then transferred from their home cage to the recording chambers for a 15-min habituation phase allowing free exploration of the new environment. Horizontal activity was then recorded for a 30-min time period. The % inhibition of L-687,414-induced hyperlocomotion was calculated according to the equation: ((Veh+L-687,414 horizontal activity−drug+L-687,414 horizontal activity)/Veh+L−687,414 horizontal activity)×100
ID50 values, defined as doses of each compound producing 50% inhibition of L-687,414-induced hyperlocomotion, were calculated by linear regression analysis of a dose-response data using an Excel-based computer-fitting program.
As data was not presupposed to be normally distributed, groups treated with test compounds were statistically compared with the control (vehicle-treated) group using one-tailed Mann Whitney U tests. In statistics, the Mann-Whitney Utest (also called the Mann-Whitney-Wilcoxon (MWW) or Wilcoxon rank-sum test) is a non-parametric statistical hypothesis test for assessing whether one of two samples of independent observations tends to have larger values than the other. It is one of the most well-known non-parametric significance tests. […] P values given in table 1 are one-tailed since only decreases in locomotion were expected and tested for (Mann, H. B., Whitney, D. R. (1947), “On a Test of Whether one of Two Random Variables is Stochastically Larger than the Other”, Annals of Mathematical Statistics, 18 (1), 50-60).

[2] = target: T1, mouse ENT-1 transporter (Mus musculus, UniProt Q9JIM1); test: Adenosine transport activity (ENT1, [3H]-adenosine uptake inhibition); assay type: cell-based; settings: stable cells expressing mouse ENT-1; [2,8-3H]-adenosine 6 nM, 20 min
T1 construct: expressed in transfected cells
T1 sequence (Q9JIM1 1-460): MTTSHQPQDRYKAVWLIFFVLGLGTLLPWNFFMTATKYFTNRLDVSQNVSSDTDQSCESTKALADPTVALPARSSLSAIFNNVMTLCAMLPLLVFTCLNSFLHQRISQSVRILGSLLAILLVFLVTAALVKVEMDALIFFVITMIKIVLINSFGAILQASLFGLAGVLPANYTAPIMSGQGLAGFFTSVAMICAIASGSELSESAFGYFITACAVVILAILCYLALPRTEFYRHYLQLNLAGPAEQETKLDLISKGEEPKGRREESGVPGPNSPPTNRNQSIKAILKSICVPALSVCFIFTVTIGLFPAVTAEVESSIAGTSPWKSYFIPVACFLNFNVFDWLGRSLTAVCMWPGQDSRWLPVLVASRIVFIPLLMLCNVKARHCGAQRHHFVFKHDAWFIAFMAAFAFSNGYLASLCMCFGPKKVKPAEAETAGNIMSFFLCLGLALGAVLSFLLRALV
Method: To measure adenosine transport activity of ENT-1 mammalian cells, stable cells expressing the mouse ENT-1 transporter were plated on day 1 in 96-well culture plates at the density of 60,000 cells/well, in complete DMEM/F12 medium supplemented with glutamax, 10% FBS and 10 μg/ml puromycin. On day 2, the medium was aspirated and the cells were washed twice with uptake buffer (10 mM Hepes-Tris, pH 7.4 containing 150 mM NaCl, 1 mM CaCl2, 2.5 mM KCl, 2.5 mM MgSO4, 10 mM D-glucose) (UB). For inhibition experiments, cells were then incubated at RT with various concentrations of compounds with 1% DMSO final. Non-specific uptake was defined in the presence of 10 μM S-(4-Nitrobenzyl)-6-thioinosine (NBTI, Sigma Cat #N2255). A solution containing [2,8-^3H]-adenosine 6 nM (40 Ci/mmol, American Radiolabeled chemicals Inc, Cat #ART 0287A) was then immediately added to the wells. The plates were then incubated for 20 min with gentle shaking and the reaction was stopped by aspiration of the mixture and washing (three times) with ice-cold UB. The cells were lysed by the addition of scintillation liquid, shaken 3 hours and the radioactivity in the cells was estimated using a microplates scintillation counter (TopCount NXT, Packard).

Cc1ncc(-c2ccc3c(c2)N(c2ccc4c(c2)N(C)C(=O)CO4)C(=O)C3(C)C)cn1 [Example 47, 6-(3,3-Dimethyl-6-(2-methylpyrimidin-5-yl)-2-oxoindolin-1-yl)-4-methyl-2H-benzo[b][1,4]oxazin-3(4H)-one]
inhibition in vivo at 30 mg/kg [1]: 93.8%
pIC50 [2]: 7.85
